# PubChem BioAssay (NCI)
#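 In this assay, cells in 96-well plates receive the compound at five concentrations for 48 hours. Endpoints are linearly interpolated between the surrounding concentrations. GI50 is the concentration that inhibits growth by half. TGI is the concentration that stops growth completely.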
# Legend:
# Assay in all cases: inhibition of tumour cell growth, NCI panel, 48 h
# 786-0 renal = test system: 786-0 renal
# A498 renal = test system: A498 renal
# A549 NSCLC = test system: A549 NSCLC
# ACHN renal = test system: ACHN renal
# BT-549 breast = test system: BT-549 breast
# CAKI-1 renal = test system: CAKI-1 renal
# CCRF-CEM leukemia = test system: CCRF-CEM leukemia
# COLO 205 colon = test system: COLO 205 colon
# DU-145 prostate = test system: DU-145 prostate
# EKVX NSCLC = test system: EKVX NSCLC
# HCC-2998 colon = test system: HCC-2998 colon
# HCT-116 colon = test system: HCT-116 colon
# HCT-15 colon = test system: HCT-15 colon
# HL-60(TB) leukemia = test system: HL-60(TB) leukemia
# HOP-62 NSCLC = test system: HOP-62 NSCLC
# HOP-92 NSCLC = test system: HOP-92 NSCLC
# HT29 colon = test system: HT29 colon
# IGROV1 ovarian = test system: IGROV1 ovarian
# K-562 leukemia = test system: K-562 leukemia
# KM12 colon = test system: KM12 colon
# LOX IMVI melanoma = test system: LOX IMVI melanoma
# M14 melanoma = test system: M14 melanoma
# MALME-3M melanoma = test system: MALME-3M melanoma
# MCF7 breast = test system: MCF7 breast
# MDA-MB-231 breast = test system: MDA-MB-231 breast
# MDA-MB-435 = test system: MDA-MB-435
# MOLT-4 leukemia = test system: MOLT-4 leukemia
# NCI-H226 lung = test system: NCI-H226 lung
# NCI-H460 lung = test system: NCI-H460 lung
# NCI-H522 lung = test system: NCI-H522 lung
# NCI/ADR-RES ovarian = test system: NCI/ADR-RES ovarian
# OVCAR-3 ovarian = test system: OVCAR-3 ovarian
# OVCAR-4 ovarian = test system: OVCAR-4 ovarian
# OVCAR-5 ovarian = test system: OVCAR-5 ovarian
# OVCAR-8 ovarian = test system: OVCAR-8 ovarian
# PC-3 prostate = test system: PC-3 prostate
# RPMI-8226 leukemia = test system: RPMI-8226 leukemia
# RXF 393 renal = test system: RXF 393 renal
# SF-268 CNS = test system: SF-268 CNS
# SF-295 CNS = test system: SF-295 CNS
# SF-539 CNS = test system: SF-539 CNS
# SK-MEL-2 melanoma = test system: SK-MEL-2 melanoma
# SK-MEL-28 melanoma = test system: SK-MEL-28 melanoma
# SK-MEL-5 melanoma = test system: SK-MEL-5 melanoma
# SK-OV-3 ovarian = test system: SK-OV-3 ovarian
# SN12C renal = test system: SN12C renal
# SNB-19 CNS = test system: SNB-19 CNS
# SNB-75 CNS = test system: SNB-75 CNS
# SR leukemia = test system: SR leukemia
# SW-620 colon = test system: SW-620 colon
# T-47D breast = test system: T-47D breast
# TK-10 renal = test system: TK-10 renal
# U251 CNS = test system: U251 CNS
# UACC-257 melanoma = test system: UACC-257 melanoma
# UACC-62 melanoma = test system: UACC-62 melanoma
# UO-31 renal = test system: UO-31 renal
structure (smiles),measurement,setting,value
C/C(=N\NC(=S)Nc1ccc(Br)cc1)c1cc2ccccc2oc1=O,GI50,786-0 renal,2.46 µM
same,TGI,786-0 renal,13.5 µM
same,GI50,A498 renal,14.4 µM
same,TGI,A498 renal,31.4 µM
same,GI50,A549 NSCLC,2.39 µM
same,TGI,A549 NSCLC,13.4 µM
same,GI50,ACHN renal,0.76 µM
same,TGI,ACHN renal,17.1 µM
same,GI50,BT-549 breast,1.26 µM
same,TGI,BT-549 breast,6.36 µM
same,GI50,CAKI-1 renal,0.561 µM
same,TGI,CAKI-1 renal,9.94 µM
same,GI50,CCRF-CEM leukemia,0.464 µM
same,TGI,CCRF-CEM leukemia,9.51 µM
same,GI50,COLO 205 colon,3.34 µM
same,TGI,COLO 205 colon,12.1 µM
same,GI50,DU-145 prostate,1.79 µM
same,TGI,DU-145 prostate,25.8 µM
same,GI50,EKVX NSCLC,2.85 µM
same,TGI,EKVX NSCLC,30.8 µM
same,GI50,HCC-2998 colon,1.69 µM
same,TGI,HCC-2998 colon,5.52 µM
same,GI50,HCT-116 colon,0.579 µM
same,TGI,HCT-116 colon,12.5 µM
same,GI50,HCT-15 colon,0.404 µM
same,TGI,HCT-15 colon,13.5 µM
same,GI50,HL-60(TB) leukemia,0.44 µM
same,TGI,HL-60(TB) leukemia,3.08 µM
same,GI50,HOP-62 NSCLC,0.841 µM
same,TGI,HOP-62 NSCLC,12.6 µM
same,GI50,HOP-92 NSCLC,1.21 µM
same,TGI,HOP-92 NSCLC,18 µM
same,GI50,HT29 colon,3.72 µM
same,TGI,HT29 colon,14.4 µM
same,GI50,IGROV1 ovarian,0.84 µM
same,TGI,IGROV1 ovarian,15.3 µM
same,GI50,K-562 leukemia,0.42 µM
same,TGI,K-562 leukemia,21.1 µM
same,GI50,KM12 colon,0.6 µM
same,TGI,KM12 colon,8.23 µM
same,GI50,LOX IMVI melanoma,0.53 µM
same,TGI,LOX IMVI melanoma,5.34 µM
same,GI50,M14 melanoma,0.604 µM
same,TGI,M14 melanoma,2.22 µM
same,GI50,MALME-3M melanoma,1.12 µM
same,TGI,MALME-3M melanoma,7 µM
same,GI50,MCF7 breast,0.87 µM
same,TGI,MCF7 breast,10.9 µM
same,GI50,MDA-MB-231 breast,0.956 µM
same,TGI,MDA-MB-231 breast,25.2 µM
same,GI50,MDA-MB-435,0.353 µM
same,TGI,MDA-MB-435,11.9 µM
same,GI50,MOLT-4 leukemia,0.46 µM
same,TGI,MOLT-4 leukemia,12 µM
same,GI50,NCI-H226 lung,1.28 µM
same,TGI,NCI-H226 lung,5.24 µM
same,GI50,NCI-H460 lung,0.462 µM
same,TGI,NCI-H460 lung,4.58 µM
same,GI50,NCI-H522 lung,0.582 µM
same,TGI,NCI-H522 lung,4.68 µM
same,GI50,NCI/ADR-RES ovarian,0.523 µM
same,TGI,NCI/ADR-RES ovarian,12.8 µM
same,GI50,OVCAR-3 ovarian,0.427 µM
same,TGI,OVCAR-3 ovarian,13 µM
same,GI50,OVCAR-4 ovarian,2.24 µM
same,TGI,OVCAR-4 ovarian,49.7 µM
same,GI50,OVCAR-5 ovarian,2.46 µM
same,TGI,OVCAR-5 ovarian,14.2 µM
same,GI50,OVCAR-8 ovarian,1.12 µM
same,TGI,OVCAR-8 ovarian,11.1 µM
same,GI50,PC-3 prostate,0.833 µM
same,TGI,PC-3 prostate,14 µM
same,GI50,RPMI-8226 leukemia,1.21 µM
same,TGI,RPMI-8226 leukemia,11.2 µM
same,GI50,RXF 393 renal,1.45 µM
same,TGI,RXF 393 renal,4 µM
same,GI50,SF-268 CNS,0.883 µM
same,TGI,SF-268 CNS,17.2 µM
same,GI50,SF-295 CNS,2.49 µM
same,TGI,SF-295 CNS,7.18 µM
same,GI50,SF-539 CNS,1.33 µM
same,TGI,SF-539 CNS,10.5 µM
same,GI50,SK-MEL-2 melanoma,0.789 µM
same,TGI,SK-MEL-2 melanoma,8.34 µM
same,GI50,SK-MEL-28 melanoma,0.872 µM
same,TGI,SK-MEL-28 melanoma,13.1 µM
same,GI50,SK-MEL-5 melanoma,1.19 µM
same,TGI,SK-MEL-5 melanoma,3.5 µM
same,GI50,SK-OV-3 ovarian,3.12 µM
same,TGI,SK-OV-3 ovarian,11.6 µM
same,GI50,SN12C renal,1.59 µM
same,TGI,SN12C renal,15.2 µM
same,GI50,SNB-19 CNS,1.41 µM
same,TGI,SNB-19 CNS,24.6 µM
same,GI50,SNB-75 CNS,0.615 µM
same,TGI,SNB-75 CNS,4.27 µM
same,GI50,SR leukemia,0.314 µM
same,TGI,SR leukemia,2.33 µM
same,GI50,SW-620 colon,0.892 µM
same,TGI,SW-620 colon,15.7 µM
same,GI50,T-47D breast,0.952 µM
same,TGI,T-47D breast,11.9 µM
same,GI50,TK-10 renal,4.65 µM
same,TGI,TK-10 renal,28.3 µM
same,GI50,U251 CNS,0.64 µM
same,TGI,U251 CNS,12 µM
same,GI50,UACC-257 melanoma,2.24 µM
same,TGI,UACC-257 melanoma,8.56 µM
same,GI50,UACC-62 melanoma,0.476 µM
same,TGI,UACC-62 melanoma,3.71 µM
same,GI50,UO-31 renal,0.587 µM
same,TGI,UO-31 renal,10.4 µM
